Source: publication PMC5384962, “First-in-human studies of seletalisib, an orally bioavailable small-molecule PI3Kδ inhibitor for the treatment of immune and inflammatory diseases” (European Journal of Clinical Pharmacology, 2017)

System: psoriatic lesional skin
Experiment: Study-1 Part-B exploratory PD in subjects with mild-to-moderate psoriasis (lesion scores, lesional skin biopsies)
Assay type: in vivo, human
Details: six subjects with psoriasis
Description: To enable assessment of target engagement, the following exploratory PD assessments were performed at various time points prior to and following study drug administration in those subjects with mild-to-moderate psoriasis. Size and appearance of the psoriatic lesion of interest (selected at screening) were assessed by lesion severity score and lesion area. Total affected area (percentage of BSA) and Physician’s Global Assessment were assessed to evaluate overall disease severity. Histological assessments of skin biopsies (6 mm) were performed by immunofluorescent microscopy of frozen sections of lesional skin, except for haematoxylin and eosin staining and IL-17 staining which were performed on formalin fixed paraffin embedded sections. Numbers of T cells (CD3), Langerhans cells (CD1a), neutrophils (MPO) and dermal dendritic cells (CD11c) were determined.  Fig. 3 Cellular responses in lesional biopsies. Lesional biopsies were taken on days 4 and 14 from each patient, and subsequently fixed, sectioned and, using immunofluorescence, stained for CD11c (dendritic cells), CD1a (Langerhans cells), CD3 (T cells) and myeloperoxidase (MPO; neutrophils). Cells were identified using a nuclear stain. Images acquired on a slide scanner were analysed using Definiens software and, following thresholding, positive cells identified. The number of positive cells per square millimeter was calculated and the fold-change in cell density from baseline was calculated. Data are mean ± SD (placebo, n = 3; treated, n = 6)

[1] = 15 mg, relative to placebo, lesional biopsies

## [O-][n+]1cccc(-c2nc3c(Cl)cccc3cc2[C@@H](Nc2ncnc3cccnc23)C(F)(F)F)c1 [Seletalisib, seletalisib]
15 mg for 14 days
  lesion severity score, total affected area (% BSA), lesion area, Physician’s Global Assessment: improvements in these parameters were seen in some of the six subjects
[1]
  numbers of dermal inflammatory cells (CD3+, CD11c+ and MPO+ cells): trend towards reduced numbers
  resident Langerhans cells (CD1a+ cells): return of the resident Langerhans cells
